{
  "source": "the OPERA property sets (Mansouri et al. 2018)",
  "data": [
    {"settings": "not given", "units": {"melting point": "°C", "boiling point": "°C"}, "values": [
      {"smiles": "O=C(O)c1cc([N+](=O)[O-])ccc1Cl", "melting point": 166},
      {"smiles": "N#Cc1cccnc1", "boiling point": 207, "log10 Henry constant (atm·m³/mol)": -6.56, "log10 Koc (L/kg)": 1.56, "log10 vapour pressure (mmHg)": -0.529, "melting point": 51, "ready biodegradability": "not readily biodegradable"},
      {"smiles": "S=C1CCCCCN1", "melting point": 108},
      {"smiles": "C=C(C)c1cccc(C(=C)C)c1", "boiling point": 231},
      {"smiles": "Cc1ccccc1Cc1ccccc1", "boiling point": 280, "melting point": 6.6},
      {"smiles": "C=CC(C)(O)CC", "note": "(stereo not drawn)", "boiling point": 118},
      {"smiles": "CCOC(=O)CCCCl", "boiling point": 184},
      {"smiles": "CCCCCCC(=O)OCCCC", "boiling point": 226, "melting point": -67.5},
      {"smiles": "ClCc1ccc2ccccc2c1", "melting point": 48.5},
      {"smiles": "CCCCC(CC)CN1C(=O)C2C(C1=O)C1(C(C)C)C=CC2(C)CC1", "note": "(stereo not drawn)", "ready biodegradability": "not readily biodegradable"},
      {"smiles": "C=C=C", "boiling point": -34.4, "log10 vapour pressure (mmHg)": 3.73, "melting point": -136},
      {"smiles": "O=S(=O)(O)c1ccc(-c2ccc(S(=O)(=O)O)cc2)cc1", "melting point": 72.5},
      {"smiles": "C[C@H]1O[C@@H](O[C@H]2[C@@H](O)C[C@H](O[C@H]3[C@@H](O)C[C@H](O[C@H]4CC[C@@]5(C)[C@H](CC[C@@H]6[C@@H]5CC[C@]5(C)[C@@H](C7=CC(=O)OC7)CC[C@]65O)C4)O[C@@H]3C)O[C@@H]2C)C[C@H](O)[C@@H]1O", "melting point": 256},
      {"smiles": "CC#CCCCCC", "boiling point": 138, "log10 vapour pressure (mmHg)": 0.875, "melting point": -61.6},
      {"smiles": "CCCCS(=O)(=O)CCCC", "boiling point": 291, "melting point": 45},
      {"smiles": "CCNS(=O)(=O)C(F)(F)C(F)(F)C(F)(F)C(F)(F)C(F)(F)C(F)(F)C(F)(F)C(F)(F)F", "boiling point": 196, "log10 vapour pressure (mmHg)": -6.37, "melting point": 96},
      {"smiles": "N#Cc1cccc(C=O)c1", "boiling point": 210, "melting point": 76.5},
      {"smiles": "C[C@H](O)C(F)(F)F", "boiling point": 75.5, "log10 Henry constant (atm·m³/mol)": -4.66, "log10 vapour pressure (mmHg)": 1.78},
      {"smiles": "Nc1ccc(Sc2ccc(N)cc2)cc1", "boiling point": 361, "log10 Koc (L/kg)": 2.04, "melting point": 108},
      {"smiles": "CCCOC(=O)C(=O)OCCC", "boiling point": 211, "melting point": -44.3},
      {"smiles": "C=CP(=O)(O)O", "melting point": 43},
      {"smiles": "C=CCC(C(=O)OCC)C(=O)OCC", "boiling point": 222},
      {"smiles": "FC(F)(F)c1ccc(Cl)cc1Cl", "boiling point": 178, "log10 vapour pressure (mmHg)": 0.0449, "melting point": -26},
      {"smiles": "O=S(=O)(O)NC1CCCCC1", "melting point": 170},
      {"smiles": "Cc1cncnc1", "boiling point": 153, "melting point": 30.5},
      {"smiles": "CC(O)C(Cl)(Cl)Cl", "note": "(stereo not drawn)", "boiling point": 163, "melting point": 50.5},
      {"smiles": "C=C1C(=O)O[C@@H]2C[C@@H](C)[C@@H]3C=CC(=O)[C@@]3(C)[C@@H](O)[C@H]12", "melting point": 168},
      {"smiles": "COCCOCCOCCOCCOC", "boiling point": 275},
      {"smiles": "CCCOC(=O)c1ccccc1C(=O)OCCC", "boiling point": 318, "log10 vapour pressure (mmHg)": -3.88},
      {"smiles": "C=CC(F)(F)Br", "boiling point": 42},
      {"smiles": "CC(C)C(C(C)C)C(C)C", "boiling point": 157, "melting point": -81.7},
      {"smiles": "CCN(CC)c1nc(Cl)nc(NC(C)C)n1", "log10 Koc (L/kg)": 2.91},
      {"smiles": "CCOP(=S)(OCC)SCSC(C)(C)C", "log10 Koc (L/kg)": 2.82, "log10 vapour pressure (mmHg)": -3.49, "melting point": -29.2},
      {"smiles": "CN1C(C)(C)CCCC1(C)C", "boiling point": 147},
      {"smiles": "CC(C)OC(=O)c1cc(-c2nn(C)c(C(F)(F)F)c2Br)c(F)cc1Cl", "log10 vapour pressure (mmHg)": -7.15, "melting point": 80},
      {"smiles": "CN(C)C(=O)N[C@@H]1C[C@@H]2C[C@H]1[C@@H]1CCC[C@H]21", "melting point": 177},
      {"smiles": "Cc1nc(C)c(Cl)c(O)c1Cl", "melting point": 320},
      {"smiles": "CC(C#N)c1ccccc1", "note": "(stereo not drawn)", "boiling point": 231},
      {"smiles": "C#C[C@]1(OC(C)=O)CC[C@H]2[C@@H]3CCC4=CC(=O)CC[C@@H]4[C@H]3CC[C@@]21C", "melting point": 162},
      {"smiles": "CN(C)C(=O)Cl", "boiling point": 167, "log10 vapour pressure (mmHg)": 0.29, "melting point": -33},
      {"smiles": "Cc1cccc2ncccc12", "boiling point": 263, "melting point": 19},
      {"smiles": "OC(CCN1CCCC1)(c1ccccc1)C1CCCCC1", "note": "(stereo not drawn)", "melting point": 86},
      {"smiles": "C[Si](C)(Cl)Cl", "boiling point": 70.3, "log10 vapour pressure (mmHg)": 2.16},
      {"smiles": "Oc1ccc(C(c2ccc(O)cc2)(C(F)(F)F)C(F)(F)F)cc1", "melting point": 162},
      {"smiles": "CC(=O)OOC(=O)c1ccccc1", "melting point": 37},
      {"smiles": "COC=O", "boiling point": 31.7, "log10 Henry constant (atm·m³/mol)": -3.65, "log10 Koa": 1.75, "log10 vapour pressure (mmHg)": 2.77, "melting point": -99},
      {"smiles": "CC(C)C(=NO)C(C)C", "boiling point": 181, "melting point": 34},
      {"smiles": "CCOC(=O)c1cnn(C)c1S(=O)(=O)NC(=O)Nc1nc(OC)cc(OC)n1", "melting point": 182},
      {"smiles": "NC(=O)c1nc(-c2ccccc2)n(-c2ccc(Cl)c(COCC(F)(F)C(F)(F)F)c2)n1", "melting point": 146},
      {"smiles": "C1=CCSC1", "boiling point": 122},
      {"smiles": "CC(C)CCC(C)C(C)C", "note": "(stereo not drawn)", "boiling point": 156},
      {"smiles": "COc1cc(C#N)ccc1O", "melting point": 86},
      {"smiles": "CCP(=O)(c1ccccc1)c1ccccc1", "melting point": 122},
      {"smiles": "CC(C)(C)C(=O)OC(=O)C(C)(C)C", "boiling point": 193, "log10 vapour pressure (mmHg)": -0.356},
      {"smiles": "ClCC=Cc1ccccc1", "melting point": -19},
      {"smiles": "CCC(=O)CC", "boiling point": 102, "log10 Henry constant (atm·m³/mol)": -4.3, "log10 Koa": 3.2, "log10 vapour pressure (mmHg)": 1.58, "melting point": -39, "ready biodegradability": "readily biodegradable"},
      {"smiles": "O=c1[nH]c(=O)n([C@H]2C[C@H](O)[C@@H](CO)O2)cc1C(F)(F)F", "melting point": 188},
      {"smiles": "CC(=O)C=CC1=C(C)CCCC1(C)C", "log10 vapour pressure (mmHg)": -1.27},
      {"smiles": "ONc1ccccc1", "melting point": 83.5},
      {"smiles": "FCCCCBr", "boiling point": 135},
      {"smiles": "O=C(O)COc1ccccc1C(=O)O", "melting point": 191},
      {"smiles": "NNc1c(Cl)cc(Cl)cc1Cl", "ready biodegradability": "not readily biodegradable"},
      {"smiles": "Cc1ccc(C=O)cc1", "boiling point": 204, "log10 vapour pressure (mmHg)": -0.602, "melting point": -6, "ready biodegradability": "readily biodegradable"},
      {"smiles": "CCCCCCCCc1ccc(O)cc1", "ready biodegradability": "not readily biodegradable"},
      {"smiles": "CC(C)(Cl)CCCl", "boiling point": 147},
      {"smiles": "COC(=O)/C=C\\C(=O)OC", "boiling point": 198, "log10 vapour pressure (mmHg)": -0.523},
      {"smiles": "C=C(C)CCC(C)=O", "boiling point": 150},
      {"smiles": "c1ccc(C2CCc3ccccc3O2)cc1", "note": "(stereo not drawn)", "boiling point": 332, "melting point": 46.3},
      {"smiles": "Nc1c(Br)cc([N+](=O)[O-])cc1Br", "melting point": 207},
      {"smiles": "Cc1c(N)cc([N+](=O)[O-])cc1C(N)=O", "melting point": 199},
      {"smiles": "N#Cc1c(F)c(F)cc(F)c1F", "melting point": 34},
      {"smiles": "Cc1ccccc1N=C=O", "boiling point": 185},
      {"smiles": "CCCCCCCCCCCCOC(=O)c1cc(O)c(O)c(O)c1", "melting point": 96.5},
      {"smiles": "CC=C1CCCCC1", "boiling point": 136},
      {"smiles": "CC1=CCCCC1", "boiling point": 106, "log10 vapour pressure (mmHg)": 1.49},
      {"smiles": "C=C(C)Br", "boiling point": 48.4, "melting point": -126},
      {"smiles": "CN1CCCC1=O", "boiling point": 202, "log10 Henry constant (atm·m³/mol)": -8.49, "log10 vapour pressure (mmHg)": -0.462, "melting point": -24, "ready biodegradability": "readily biodegradable"},
      {"smiles": "O=C(CCCl)NCc1ccccc1", "melting point": 94},
      {"smiles": "CCN(CC)c1ccc(C(=O)c2ccccc2C(=O)O)c(O)c1", "ready biodegradability": "not readily biodegradable"},
      {"smiles": "CS(=O)(=O)NC(=O)c1cc(Oc2ccc(C(F)(F)F)cc2Cl)ccc1[N+](=O)[O-]", "log10 Koc (L/kg)": 1.78, "melting point": 220},
      {"smiles": "Nc1ccccc1Oc1ccccc1", "boiling point": 308, "melting point": 45.8},
      {"smiles": "CCNC(=O)C(C)OC(=O)Nc1ccccc1", "note": "(stereo not drawn)", "melting point": 119},
      {"smiles": "COC(=O)CCS", "boiling point": 166, "ready biodegradability": "readily biodegradable"},
      {"smiles": "CCOC(=O)CC(C)=O", "boiling point": 181, "log10 vapour pressure (mmHg)": -0.108, "melting point": -45},
      {"smiles": "Cc1nnc2n1-c1sc(Br)cc1C(c1ccccc1Cl)=NC2", "melting point": 213},
      {"smiles": "CCCCn1c2ccccc2c2ccccc21", "melting point": 58},
      {"smiles": "Nc1ccc(S(=O)(=O)Nc2cnc3ccccc3n2)cc1", "melting point": 248},
      {"smiles": "Oc1ccc(N=Nc2ccccc2)c(O)c1", "melting point": 170},
      {"smiles": "COC(=O)c1ccccc1O", "boiling point": 223, "log10 vapour pressure (mmHg)": -1.46, "melting point": -8},
      {"smiles": "CB(C)C", "boiling point": -20.2, "melting point": -162},
      {"smiles": "CCOC(=O)c1nc(C(Cl)(Cl)Cl)n(-c2ccc(Cl)cc2Cl)n1", "log10 vapour pressure (mmHg)": -8.18, "melting point": 110},
      {"smiles": "CCCCOCOCCCC", "boiling point": 179, "melting point": -58.1},
      {"smiles": "OC(c1ccccc1)c1ccccc1", "boiling point": 298, "log10 Koc (L/kg)": 2.34, "log10 vapour pressure (mmHg)": -4.56, "melting point": 69, "ready biodegradability": "readily biodegradable"},
      {"smiles": "CC1COc2ccccc2N1C(=O)C(Cl)Cl", "note": "(stereo not drawn)", "log10 vapour pressure (mmHg)": -5.35, "melting point": 108},
      {"smiles": "Cc1ccc(C(C)C)c(OC(=O)NCCC(C)C)c1", "melting point": 57},
      {"smiles": "CCO[Si](Cl)(OCC)OCC", "boiling point": 156, "melting point": -51},
      {"smiles": "CCOc1ccc(OCC)cc1", "boiling point": 246, "melting point": 72},
      {"smiles": "COC(=O)/C=C(\\C)OP(=O)(OC)OC", "log10 vapour pressure (mmHg)": -3.91, "melting point": 21},
      {"smiles": "CCC(c1ccccc1)c1ccccc1", "boiling point": 282, "melting point": 13.3}
    ]},
    {"settings": "fish", "values": [
      {"smiles": "CCCCC(CC)CN1C(=O)C2C(C1=O)C1(C(C)C)C=CC2(C)CC1", "note": "(stereo not drawn)", "log10 BCF": 2.97, "log10 biotransformation half-life (days)": 0.31},
      {"smiles": "FC(F)(F)c1ccc(Cl)cc1Cl", "log10 BCF": 3.37, "log10 biotransformation half-life (days)": 1.81},
      {"smiles": "C=C(C)CCCCCCCCCCC", "log10 biotransformation half-life (days)": 0.73}
    ]}
  ]
}
